These results are taken from patent US12115256B2, “Targeted liposomal gemcitabine and methods thereof” (L.E.A.F. HOLDINGS GROUP LLC, priority 2016, dated 2024).

Data set [1] concerns the target T1, Reduced folate carrier (RFC) (Homo sapiens, UniProt P41440).
T1 sequence (P41440 1-591): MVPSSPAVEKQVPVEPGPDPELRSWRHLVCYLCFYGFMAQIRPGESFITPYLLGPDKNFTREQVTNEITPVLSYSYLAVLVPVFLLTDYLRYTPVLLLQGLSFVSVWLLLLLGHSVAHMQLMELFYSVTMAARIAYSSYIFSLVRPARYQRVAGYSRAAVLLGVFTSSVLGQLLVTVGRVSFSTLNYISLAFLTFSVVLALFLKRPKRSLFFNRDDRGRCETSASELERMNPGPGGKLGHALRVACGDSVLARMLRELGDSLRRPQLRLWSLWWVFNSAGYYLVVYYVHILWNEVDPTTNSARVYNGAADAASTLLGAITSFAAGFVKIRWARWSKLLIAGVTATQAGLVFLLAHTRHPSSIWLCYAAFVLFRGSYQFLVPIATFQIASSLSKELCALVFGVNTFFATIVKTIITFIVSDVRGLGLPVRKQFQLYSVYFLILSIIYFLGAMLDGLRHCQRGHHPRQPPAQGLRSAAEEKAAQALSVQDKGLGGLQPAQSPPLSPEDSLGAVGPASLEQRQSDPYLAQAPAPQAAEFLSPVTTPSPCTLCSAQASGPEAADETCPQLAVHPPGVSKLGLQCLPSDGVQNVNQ
The settings on record: read-out: Binding affinity, Km; cited from earlier work.

Another data set deals with Folate receptor α (FRα) (Homo sapiens, UniProt P15328). Conditions: read-out: Binding affinity, Kd; cited from earlier work.
Data set [2] relates to CD34+ stem cells (hematopoietic progenitor cells) differentiating into neutrophils. The format is cell-based. Conditions: human, 2 days. An excerpt: The level of a molecule called CD15 is elevated on more mature neutrophils. This molecule is elevated on cells in the circles drawn on the plots.
FIG. 8. Neutrophil differentiation assay. One of the major side effects from gemcitabine treatment is the reduction of neutrophils in the bloodstream that counter infections. This is the result of CD34+ stem cells not differentiating, or developing, into mature neutrophils in the bone marrow. We measured the effect of targeted liposomal gemcitabine on neutrophil differentiation compared to the same dose of gemcitabine (10 and 50 μM.) Hematopoietic progenitor cells (CD34+) were purchased and treated with a panel of growth factors to induce neutrophil differentiation.
CD34+ stem cells were cultured without (A) or with (B) cytokines (growth factors) that induce neutrophil differentiation in vitro, including stem cell factor, IL-3, and […] for 2 days. […] By day 2, there is a dramatic increase in mature neutrophils depicted in the oval. […] The cells within the drawn gate (FIG. 8B) are larger, more complex maturing neutrophils that are lacking in FIG. 8A.
In more detail, experiments were performed as follows: CD34+ stem cells were obtained from ATCC. CD34+ cells were thawed at 37° C. for 1 minute. While on ice, the cells were transferred to cold stem cell medium (“StemSpan SFEM”—Stem Cell Tech. cat. #9650), 10% heat […] fetal bovine serum (HI FBS.) Each vial contained approximated 5×10^5 cell/ml. The cells were placed in 96 well tissue culture plates 35,000 cell/well.
The neutrophils GROWTH media contained 100 ng/ml of stem cell factor human (SCF-Sigma H8416, lot #MKBT8036V), 20 ng/ml of granulocyte colony-stimulation factor, human (G-CSF-Sigma H5541, lot #SLBC9602V), 10 ng/ml of IL3 recombinant human (Sigma SRP3090, lot #1008AFC13) in StemSpam media as above.
The cells were also treated as follows 1) StemSpam media alone with no growth cytokines; 2) StemSpam media+growth cytokines, and 3) Gemcitabine, Targeted Liposomal Gemcitabine and non-Targeted Liposomal Gemcitabine in amounts as indicated. […]

For data set [3], the system named is NCI-H2452 lung (mesothelioma) cancer cells. Kind of data set: MTS cell proliferation assay, NCI-H2452. In kind it is cell-based. Conditions: Homo sapiens, 96 h, 4 days, MTS (FIG. 2). An excerpt:
(§1) Cells lines used in the experiments are commercially available from sources such as the ATCC (American Type Culture Collection of Manassas, Virginia, U.S.A). The cell lines, their ATCC accession numbers and growth conditions are listed below. • NCI-H2452 (ATCC® CRL-5946TH); RPMI-1640 (Cat. #30-2001); 10% HI FBS; 1% Pen/Strep; 1% L-Glutamine. • PANC-1 (ATCC® CRL-1469TH); Dulbecco's Modified Eagle's Medium (DMEM) (ATCC® 30-2002TM) 10% HI FBS; 1% Pen/Strep; 1% L-Glutamine • SKBR3; McCoy 5A Medium; 10% HI FBS; 1% Pen/Strep; 1% L-Glutamine.
(§2) Cancer cell lines were seeded in 96 well plates on day 0 at optimal cell numbers. On day 1, drug formulations were added at 2-fold serial dilutions. The cells were incubated for 3-5 days and the level of inhibition of cellular proliferation was measured by the MTS assay (3-(4,5-dimethylthiazol-2-yl)-5-(3-carboxymethoxyphenyl)-2-(4-sulfophenyl)-2H-tetrazolium assay). The commercially available MTS Cell Proliferation Assay Kit (Colorimetric) (197010) is a colorimetric sensitive quantification of viable cells in proliferation and cytotoxicity assay. […]
(§3) On day 4, the effect on cellular proliferation was measured with MTS assay. […] The plates were incubated for 2 hours at 37° C. and the absorbance was measured at 490 nm. […]
(In general: Tetrazolium dyes change colour on reduction, which living cells bring about.)

Data set [4] relates to PANC-1 pancreatic cancer cells. The data set can be described thus: MTS cell proliferation assay, PANC-1. The format is cell-based. Conditions: Homo sapiens, 96 h, 4 days.
Excerpt: as §1, §2, §3

The subject of data set [5] is HPAF-II pancreatic cancer cells. Kind of data set: MTS cell proliferation assay, HPAF-II. In kind it is cell-based. Conditions: Homo sapiens, 96 h, 4 days. As for the experimental part: HPAF-II ATCC CRL-1997; Eagle's Minimum Essential Medium (EMEM) (ATCC® 30-2003Tm)); 10% HI FBS; 1% Pen/Strep; 1% L-Glutamine.
Cancer cell lines were seeded in 96 well plates on day 0 at optimal cell numbers. On day 1, drug formulations were added at 2-fold serial dilutions. The cells were incubated for 3-5 days and the level of inhibition of cellular proliferation was measured by the MTS assay (3-(4,5-dimethylthiazol-2-yl)-5-(3-carboxymethoxyphenyl)-2-(4-sulfophenyl)-2H-tetrazolium assay). The commercially available MTS Cell Proliferation Assay Kit (Colorimetric) (197010) is a colorimetric sensitive quantification of viable cells in proliferation and cytotoxicity assay. The assay is based on the reduction of MTS tetrazolium compound by viable cells to generate a colored formazan product that is soluble in cell culture media.
The MTS experiments are performed as follows: The night before, the cells are seeded according to the amount of cells required for each cell line in 96 well tissue culture plate. Final volume in each well is 100 μL (see Table of cell lines for reference; all cell lines obtained from ATCC).
The seeded cells are incubated at 37° C. and 5% CO 2 overnight. […]
as §3

The subject of data set [6] is SKBR3 breast cancer cells. The data set can be described thus: MTS cell proliferation assay, SKBR3. The format is cell-based. The settings on record: Homo sapiens, SK-BR-3, 96 h, 4 days.
Excerpt: as §1, §2, §3

Read-outs that look alike come from different tables or passages of the source.

Folate receptor α (FRα), sequence (P15328 25-234, species assumed): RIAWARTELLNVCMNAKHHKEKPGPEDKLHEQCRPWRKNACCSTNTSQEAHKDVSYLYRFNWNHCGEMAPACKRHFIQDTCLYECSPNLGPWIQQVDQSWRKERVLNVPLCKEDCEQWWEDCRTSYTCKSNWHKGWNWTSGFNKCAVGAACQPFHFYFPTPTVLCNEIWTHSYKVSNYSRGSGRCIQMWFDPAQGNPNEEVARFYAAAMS

On to `CN(Cc1cnc2nc(N)nc(N)c2n1)c1ccc(C(=O)N[C@@H](CCC(=O)O)C(=O)O)cc1` [methotrexate], for which, in data set [1], the Km is 1 to 5 µM.
Turning to `CN1c2c(nc(N)[nH]c2=O)NCC1CNc1ccc(C(=O)N[C@@H](CCC(=O)O)C(=O)O)cc1` (some centres unmarked) [5-mTHF, 5-methyltetrahydrofolate], on Folate receptor α (FRα), the dissociation constant (Kd) was 0.001 to 0.01 µM. Besides, the Michaelis-Menten constant (Km) in data set [1] was 1 to 10 µM.
On to `Nc1ccn([C@@H]2O[C@H](CO)[C@@H](O)C2(F)F)c(=O)n1` [Gemcitabine, gemcitabine], for which, in data set [2], the “Number of live cells within the neutrophil gate (CD15+)” value is on record as “less than 100”. Further, the “Percentage of live cells within the neutrophil gate” value in data set [2] (10 μM) was “less than 5%”; in data set [2] (50 μM), “less than 20%”. In addition, the IC50 in data set [3] turned out to be 30.4 µM; in data set [4], 11 µM; in data set [5], 9.11 µM; in data set [6], 297 µM.
In the case of `Nc1nc2ncc(CNc3ccc(C(=O)N[C@@H](CCC(=O)O)C(=O)O)cc3)nc2c(=O)[nH]1` [folic acid], the Km in data set [1] was 200 to 400 µM.

One may read the Km as the substrate concentration at which the rate is half of its maximum. One may read the Kd as a measure of binding affinity in units of concentration. The term IC50 denotes the point on the concentration scale where inhibition reaches its midpoint. High values mean weaker potency, low ones greater potency.
